Measured values from ChEMBL document CHEMBL1201862, “PubChem BioAssay data set” (2004).
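Dose response: 5 concentrations. Exposure: 48 h. Format: 96-well plates. Endpoint: linear interpolation; highest concentration if not reached. GI50 = concentration required for 50% inhibition of growth.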 Calls of active or inactive are those of the source. Cut-off read from the data, not from the text of the source: active = GI50 up to about 1.1 µM and inactive = higher.

How the values were obtained:
Experiment in all cases: inhibition of tumour cell growth, NCI panel, 48 h
OVCAR-5 = test system: OVCAR-5
HCT-15 = test system: HCT-15
UACC-62 = test system: UACC-62
TK-10 = test system: TK-10
RXF 393 = test system: RXF 393
COLO 205 = test system: COLO 205
OVCAR-4 = test system: OVCAR-4
HCC 2998 = test system: HCC 2998
OVCAR-8 = test system: OVCAR-8
SK-MEL-2 = test system: SK-MEL-2
NCI-H23 = test system: NCI-H23
KM12 = test system: KM12
HCT-116 = test system: HCT-116
HT-29 = test system: HT-29
ACHN = test system: ACHN
SNB-19 = test system: SNB-19
IGROV-1 = test system: IGROV-1
U-251 = test system: U-251
K562 = test system: K562
SF-539 = test system: SF-539

SMILES	GI50 (OVCAR-5)	GI50 (HCT-15)	GI50 (UACC-62)	GI50 (TK-10)	GI50 (RXF 393)	GI50 (COLO 205)	GI50 (OVCAR-4)	GI50 (HCC 2998)	GI50 (OVCAR-8)	GI50 (SK-MEL-2)	GI50 (NCI-H23)	GI50 (KM12)	GI50 (HCT-116)	GI50 (HT-29)	GI50 (ACHN)	GI50 (SNB-19)	GI50 (IGROV-1)	GI50 (U-251)	GI50 (K562)	GI50 (SF-539)
O=c1c2c3c(sc2nc(CN2CCNCC2)n1-c1ccccc1)CCCC3	> 100 µM (inactive)	> 100 µM	> 100 µM (inactive)	> 100 µM (inactive)	> 100 µM (inactive)	> 100 µM (inactive)	22.8 µM (inactive)	> 100 µM (inactive)	> 100 µM (inactive)	> 100 µM (inactive)	> 100 µM (inactive)	> 100 µM (inactive)	53.3 µM (inactive)	35.9 µM (inactive)	> 100 µM (inactive)	> 100 µM (inactive)	> 100 µM (inactive)	> 100 µM (inactive)	> 100 µM (inactive)	
N#CC1(CCCI)CCCC1	25.1 µM (inactive)	14.5 µM	11 µM (inactive)	41.9 µM (inactive)	11 µM (inactive)	27.8 µM (inactive)		33.7 µM (inactive)	51.1 µM (inactive)	15.9 µM (inactive)	9.79 µM (inactive)	17.5 µM (inactive)	4.18 µM (inactive)	15.2 µM (inactive)	21.4 µM (inactive)	15.8 µM (inactive)	> 100 µM (inactive)	13.4 µM (inactive)	27.7 µM (inactive)	15.5 µM (inactive)
CCCCc1c2c(nc3c1CCc1cc4cc5c(nc4nc1-3)-c1nc3c(c(CCCC)c1CC5)CCC/C3=C\c1ccccc1)/C(=C/c1ccccc1)CCC2		> 100 µM	> 100 µM (inactive)	> 100 µM (inactive)	> 100 µM (inactive)	> 100 µM (inactive)		> 100 µM (inactive)	> 100 µM (inactive)		> 100 µM (inactive)	> 100 µM (inactive)	> 100 µM (inactive)	> 100 µM (inactive)	> 100 µM (inactive)	> 100 µM (inactive)	> 100 µM (inactive)	> 100 µM (inactive)	> 100 µM (inactive)	> 100 µM (inactive)
COc1ccc(NCC(=O)Nn2c(-c3ccccc3)nc3ccccc3c2=O)cc1	> 100 µM (inactive)	54 µM	14.1 µM (inactive)	> 100 µM (inactive)	> 10 µM (inactive)	37.2 µM (inactive)	33.7 µM (inactive)	77.6 µM (inactive)	31.9 µM (inactive)		37.2 µM (inactive)	70.8 µM (inactive)	> 10 µM (inactive)	32.4 µM (inactive)	38.4 µM (inactive)	50.2 µM (inactive)	27 µM (inactive)	28.7 µM (inactive)	24.5 µM (inactive)	39.2 µM (inactive)
CC1(C)COC2C(N(Cc3ccccc3)Cc3ccccc3)C(=O)N21 (stereo not given)	> 100 µM (inactive)	39.6 µM	25.1 µM (inactive)	37.2 µM (inactive)	19.3 µM (inactive)	25.1 µM (inactive)	27.9 µM (inactive)	41.7 µM (inactive)	32.1 µM (inactive)		34.3 µM (inactive)	37.8 µM (inactive)	33.4 µM (inactive)	31.8 µM (inactive)	35.6 µM (inactive)	24 µM (inactive)	41.9 µM (inactive)	26.3 µM (inactive)	27.9 µM (inactive)	25.9 µM (inactive)
Cc1cn(Cc2cnnn2CC2OC(n3cc(C)c(=O)[nH]c3=O)CC2O)c(=O)[nH]c1=O (stereo not given)	> 100 µM (inactive)	> 100 µM	> 100 µM (inactive)	> 100 µM (inactive)	> 100 µM (inactive)	> 100 µM (inactive)	> 100 µM (inactive)	> 100 µM (inactive)	> 100 µM (inactive)	> 100 µM (inactive)	> 100 µM (inactive)	> 100 µM (inactive)	> 100 µM (inactive)		> 100 µM (inactive)	> 100 µM (inactive)	> 100 µM (inactive)	> 100 µM (inactive)		> 100 µM (inactive)
OCC1OC(n2ccc3cnccc32)CC1O (stereo not given)	> 100 µM (inactive)	> 100 µM	> 100 µM (inactive)	> 100 µM (inactive)		> 100 µM (inactive)	> 100 µM (inactive)	> 100 µM (inactive)	> 100 µM (inactive)	> 100 µM (inactive)	> 100 µM (inactive)	> 100 µM (inactive)	> 100 µM (inactive)	> 100 µM (inactive)	> 100 µM (inactive)	> 100 µM (inactive)	> 100 µM (inactive)	> 100 µM (inactive)	> 100 µM (inactive)	> 100 µM (inactive)
O=C(NC(COC(=O)C(Cc1ccccc1)NC(=O)c1ccccc1)Cc1ccccc1)c1ccccc1 (stereo not given)	> 50 µM (inactive)	> 50 µM	> 50 µM (inactive)	> 50 µM (inactive)			> 50 µM (inactive)	> 50 µM (inactive)	> 50 µM (inactive)	> 50 µM (inactive)	> 50 µM (inactive)	> 50 µM (inactive)		> 50 µM (inactive)	> 50 µM (inactive)	25.6 µM (inactive)	> 50 µM (inactive)	35 µM (inactive)	> 50 µM (inactive)	> 50 µM (inactive)
COc1cc(C(=O)C/C(CCC(=O)Nc2ccc(Cl)cc2Cl)=N/NC(=O)C(=O)NN)ccc1O	> 100 µM (inactive)	> 100 µM	53.8 µM (inactive)	> 100 µM (inactive)	> 100 µM (inactive)	> 100 µM (inactive)	> 100 µM (inactive)	> 100 µM (inactive)	> 100 µM (inactive)		> 100 µM (inactive)	> 100 µM (inactive)	> 100 µM (inactive)	> 100 µM (inactive)	> 100 µM (inactive)	> 100 µM (inactive)	> 100 µM (inactive)	> 100 µM (inactive)	28.1 µM (inactive)	> 100 µM (inactive)
CC1(C)OP(=O)(O)CC1=O	> 100 µM (inactive)	> 100 µM	> 100 µM (inactive)	> 100 µM (inactive)		> 100 µM (inactive)	> 100 µM (inactive)	> 100 µM (inactive)	> 100 µM (inactive)	> 100 µM (inactive)	> 100 µM (inactive)	> 100 µM (inactive)	> 100 µM (inactive)	> 100 µM (inactive)	> 100 µM (inactive)	> 100 µM (inactive)	> 100 µM (inactive)	> 100 µM (inactive)	> 100 µM (inactive)	> 100 µM (inactive)
O=c1c(-c2ccccc2)c(SCCCN2CCCCC2)n(-c2ccccc2)c(=S)n1-c1ccccc1	> 100 µM (inactive)	17.3 µM	16.1 µM (inactive)	16.9 µM (inactive)	14.3 µM (inactive)	17.6 µM (inactive)	24 µM (inactive)	3.83 µM (inactive)	18.6 µM (inactive)	15.9 µM (inactive)	19 µM (inactive)	19.4 µM (inactive)			17.4 µM (inactive)		17.9 µM (inactive)	15.6 µM (inactive)	14.1 µM (inactive)	15.7 µM (inactive)
COC1/C=C/C(C)C(C(C)C(OC)C(C)CCC(=O)C(C)C(C/C=C/N(C)C=O)OC)OC(=O)/C=C/C=C(\C)CC(OC)CC2=CC(=O)O[C@H](C2)C(C)C(OC)CC(OC)/C=C/C(C)C(OC)C1 (stereo not given in full)		< 0.005 µM	0.00752 µM (active)		0.0148 µM (active)		0.0984 µM (active)	0.0133 µM (active)	0.0224 µM (active)	0.00733 µM (active)	0.0521 µM (active)	0.0094 µM (active)	< 0.005 µM (active)	< 0.005 µM (active)		0.0149 µM (active)	0.0113 µM (active)			
CN1C(=O)CN=C(c2ccccc2F)c2cc(N=C=S)ccc21	> 100 µM (inactive)	35.8 µM	25.1 µM (inactive)	37.4 µM (inactive)	36.6 µM (inactive)		35.4 µM (inactive)	50.8 µM (inactive)	47.5 µM (inactive)	92.3 µM (inactive)	62.4 µM (inactive)	44.6 µM (inactive)	44.3 µM (inactive)	34.2 µM (inactive)	25.5 µM (inactive)	60 µM (inactive)	38.7 µM (inactive)	48.4 µM (inactive)		
CN(C)c1ccc(C2SCC(=O)N2NS(=O)(=O)c2cccc(C(=O)O)c2)cc1 (stereo not given)	> 100 µM (inactive)	76.9 µM	> 100 µM (inactive)	> 100 µM (inactive)	> 100 µM (inactive)	> 100 µM (inactive)		> 100 µM (inactive)	17.7 µM (inactive)	> 100 µM (inactive)	> 100 µM (inactive)	> 100 µM (inactive)	> 100 µM (inactive)	> 100 µM (inactive)	> 100 µM (inactive)	> 100 µM (inactive)	> 100 µM (inactive)	> 100 µM (inactive)	35.6 µM (inactive)	46.3 µM (inactive)
CCOC(=O)COc1cccc2occc(=O)c12	> 100 µM (inactive)	> 100 µM	> 100 µM (inactive)	> 100 µM (inactive)		> 100 µM (inactive)	> 100 µM (inactive)	> 100 µM (inactive)	> 100 µM (inactive)	> 100 µM (inactive)	> 100 µM (inactive)	> 100 µM (inactive)	> 100 µM (inactive)	> 100 µM (inactive)	> 100 µM (inactive)	> 100 µM (inactive)	> 100 µM (inactive)	> 100 µM (inactive)	> 100 µM (inactive)	> 100 µM (inactive)
